# Patent US12459921B2, “Isoindoline compound, preparation method, pharmaceutical composition and use thereof” (SHANGHAI INSTITUTE OF MATERIA MEDICA, CHINESE ACADEMY OF …, priority 2018, dated 2025)
# Tested on: MM.1S cells
# Experiment: Inhibitory effect on the proliferation of MM.1S, MTS cell viability test
# Format: cell-based
# Details: Homo sapiens, MM1.S, 168 h, multiple myeloma MM.1S cells, 7 days incubation, read-out: Tumor cell inhibitory activity
# Summary of the method: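 MM.1S cells (20,000/well, RPMI 1640 with 10% FBS) exposed to 5-fold compound dilutions at 0.2% DMSO for 7 days at 37° C, 5% CO2. MTS added for 3-4 h; OD490-OD690 gave inhibition versus DMSO, IC50 fitted, mean of three experiments.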
row,SMILES,IC50 [nM]
1,"O=C1CCC(N2Cc3c(CCCCN4CCN(c5nsc6ccccc56)CC4)cccc3C2=O)C(=O)N1 (centres unmarked) [Example 230, 3-(4-(4-(4-(benzisothiazol-3-yl)piperazine-1-yl)butyl)-1-oxoisoindoline-2-yl) piperidine-2,6-dione]",1000 to 20000
2,"N#CC1(c2c(F)cccc2Cl)CCN(CCCOc2cccc3c2CN(C2CCC(=O)NC2=O)C3=O)CC1 (centres unmarked) [Example 68, 4-(2-chloro-6-fluorophenyl)-1-(3-((2-(2,6-dioxopiperidine-3-)-1-oxoisoindoline-4-)oxy)propyl)piperidine-4-carbonitrile]",< 100
3,"N#CC1(c2cccc(Cl)c2)CCN(CCCCc2cccc3c2CN(C2CCC(=O)NC2=O)C3=O)CC1 (centres unmarked) [Example 93, 4-(3-chlorophenyl)-1-(4-(2-(2,6-dioxopiperidine-3-)-1-oxoisoindoline-4-)butyl)piperidine-4-carbonitrile]",< 100
4,"O=C1CCC(N2Cc3c(CCCCCN4CCC5(CC4)OC(=O)Nc4ncccc45)cccc3C2=O)C(=O)N1 (centres unmarked) [Example 131, 3-(1-oxo-4-(5-(2′-oxo-1′,2′-dihydrospiro[piperidine-4,4′-pyrido[2,3-d][1,3)oxazine)-1-)pentyl)isoindoline-2-)piperidine-2,6-dione]",100 to 1000
5,"O=C1CCC(N2Cc3c(CCCCCN4CCC5(CC4)OC(=O)Nc4ccc(Cl)cc45)cccc3C2=O)C(=O)N1 (centres unmarked) [Example 277, 3-(4-(5-(6-chloro-2-oxo-1,2-dihydrospiro[benzo[1,3]oxazine-4,4′-piperidine]-1′-yl)pentyl)-1-oxoisoindolin-2-yl)piperidine-2,6-dione]",100 to 1000
6,"N#CC1(c2cc(Cl)ccc2Cl)CCN(CCCCc2cccc3c2CN(C2CCC(=O)NC2=O)C3=O)CC1 (centres unmarked) [Example 269, 4-(2,5-dichlorophenyl)-1-(4-(2-(2,6-dioxopiperidin-3-yl)-1-oxoisoindoline-4-yl)butyl)piperidine-4-carbonitrile]",100 to 1000
7,"O=C1CCC(N2Cc3c(CCCCN4CCN(c5ccccc5F)CC4)cccc3C2=O)C(=O)N1 (centres unmarked) [Example 218, 3-(4-(4-(4-(2-fluorophenyl)piperazine-1-yl)butyl)-1-oxoisoindoline-2-yl)piperidine-2,6-dione]",< 100
8,"N#CC1(c2cc(Cl)cc(Cl)c2)CCN(CCCCc2cccc3c2CN(C2CCC(=O)NC2=O)C3=O)CC1 (centres unmarked) [Example 244, 4-(3,5-dichlorophenyl)-1-(4-(2-(2,6-dioxopiperidine-3-yl)-1-oxoisoindoline-4-yl)butyl)piperidine-4-carbonitrile]",100 to 1000
9,"O=C1CCC(N2Cc3c(CCCCCN4CCC5(CC4)OC(=O)c4cc(Cl)ccc45)cccc3C2=O)C(=O)N1 (centres unmarked) [Example 129, 3-(4-(5-(5-chloro-3-oxo-3H-spiro[isobenzofuran-1,4′-piperidine]-1′-)pentyl)-1-oxoisoindoline-2-)piperidine-2,6-dione]",100 to 1000
10,"Cc1cc(OCCCCOc2cccc3c2C(=O)N(C2CCC(=O)NC2=O)C3=O)c2ccccc2n1 (centres unmarked) [Example 108, 2-(2,6-dioxopiperidine-3-)-4-(4-((2-methylquinoline-4-)oxy)butoxy)isoindoline-1,3-dione]",1000 to 20000
11,"Cc1ccc2nc(C(F)(F)F)cc(OCCCCCc3cccc4c3CN(C3CCC(=O)NC3=O)C4=O)c2c1 (centres unmarked) [Example 7, 3-(4-(5-((6-methyl-2-(trifluoromethyl)quinoline-4-)oxy)pentyl)-1-oxoisoindoline-2-)piperidine-2,6-dione]",100 to 1000
12,"COc1ccc(OC)c(C2(C#N)CCN(CCCCc3cccc4c3CN(C3CCC(=O)NC3=O)C4=O)CC2)c1 (centres unmarked) [Example 246, 4-(2,5-dimethoxyphenyl)-1-(4-(2-(2,6-dioxopiperidine-3-yl)-1-oxoisoindoline-4-yl)butyl)piperidine-4-carbonitrile]",100 to 1000
13,"O=C1CCC(N2Cc3c(CCCCCN4CCN(c5cc(Cl)cc(Cl)c5)CC4)cccc3C2=O)C(=O)N1 (centres unmarked) [Example 237, 3-(4-(5-(4-(3,5-dichlorophenyl)piperazine-1-yl)pentyl)-1-oxoisoindoline-2-yl)piperidine-2,6-dione]",100 to 1000
14,"N#Cc1ccc(C2(C#N)CCN(CCCOc3cccc4c3CN(C3CCC(=O)NC3=O)C4=O)CC2)cc1 (centres unmarked) [Example 69, 4-(4-cyanophenyl)-1-(3-((2-(2,6-dioxopiperidine-3-)-1-oxoisoindoline-4-)oxy)propyl)piperidine-4-carbonitrile]",100 to 1000
15,"CC(=O)N[C@@H](CCCc1cccc2c1CN(C1CCC(=O)NC1=O)C2=O)C(=O)NCc1cccc(Cl)c1 (stereo partly drawn) [Example 184, (2S)-2-acetylamino-N-(3-chlorobenzyl)-5-(2-(2,6-dioxopiperidine-3-)-1-oxoisoindoline-4-)pentanamide]",100 to 1000
16,"N#CC1(c2cccc(Cl)c2)CCN(C(=O)CCCOc2cccc3c2CN(C2CCC(=O)NC2=O)C3=O)CC1 (centres unmarked) [Example 83, 4-(3-chlorophenyl)-1-(4-((2-(2,6-dioxopiperidine-3-)-1-oxoisoindoline-4-)oxy)butyryl) piperidine-4-carbonitrile]",< 100

row,SMILES,IC50 [nM]
1,"O=C1CCC(N2Cc3c(OCCCCCCN4CCC5(CC4)OCc4ccc(Cl)cc45)cccc3C2=O)C(=O)N1 (centres unmarked) [Example 150, 3-(4-((6-(6-chloro-3H-spiro[isobenzofuran-1,4′-piperidine]-1′-)hexyl)oxy)-1-oxoisoindoline-2-)piperidine-2,6-dione]",< 100
2,"CC(=O)N[C@@H](CCCc1cccc2c1CN(C1CCC(=O)NC1=O)C2=O)C(=O)NC1C2CC3CC(C2)CC1C3 (stereo partly drawn) [Example 200, (2S)-2-acetylamino-N-((1S,3S,5S,7 S)-adamantane-2-)-5-(2-(2,6-dioxopiperidine-3-)-1-oxoisoindoline-4-)pentanamide]",100 to 1000
3,"O=C1CCC(N2Cc3c(CCCCN4CCC(c5noc6cc(F)ccc56)CC4)cccc3C2=O)C(=O)N1 (centres unmarked) [Example 227, 3-(4-(4-(4-(6-fluorobenzisoxazole-3-yl)piperidin-1-yl)butyl)-1-oxoisoindoline-2-yl)piperidine-2,6-dione]",1000 to 20000
4,"Cc1cccc(N2CCN(CCCCc3cccc4c3CN(C3CCC(=O)NC3=O)C4=O)CC2)c1 (centres unmarked) [Example 40, 3-(1-oxo-4-(4-(4-(3-methylphenyl)piperazine-1-)butyl)isoindoline-2-)piperidine-2,6-dione]",< 100
5,"N#CC1(c2ccc(Cl)cc2)CCN(C(=O)CCCOc2cccc3c2CN(C2CCC(=O)NC2=O)C3=O)CC1 (centres unmarked) [Example 84, 4-(4-chlorophenyl)-1-(4-((2-(2,6-dioxopiperidine-3-)-1-oxoisoindoline-4-)oxy)butyryl)piperidine-4-carbonitrile]",100 to 1000
6,"CC(=O)N[C@@H](CCCc1cccc2c1CN(C1CCC(=O)NC1=O)C2=O)c1nc2ccncc2[nH]1 (stereo partly drawn) [Example 205, N-((1S)-4-(2-(2,6-dioxopiperidine-3-)-1-oxoisoindoline-4-)-1-(3H-imidazole[4,5-c]pyridine-2-)butyl)acetamide]",> 20000
7,"O=C1CCC(N2Cc3c(OCCCC(=O)N4CCN(c5cccc(Cl)c5Cl)CC4)cccc3C2=O)C(=O)N1 (centres unmarked) [Example 29, 3-(4-(4-(4-(2,3-dichlorophenyl)piperazine-1-)-4-oxobutoxy)-1-oxoisoindoline-2-)piperidine-2,6-dione]",< 100
8,"Cc1ccc(NC(=O)[C@H](CCCc2cccc3c2CN(C2CCC(=O)NC2=O)C3=O)NC(=O)C2CCC2)cc1Cl (stereo partly drawn) [Example 187, N-((2S)-1-((3-chloro-4-methylphenyl)amino)-5-(2-(2,6-dioxopiperidine-3-)-1-oxoisoindoline-4-)-1-oxopentyl-2-)cyclobutylcarboxamide]",< 100
9,"O=C1CCC(N2Cc3c(CCCCCN4CCN(c5cccc6ccsc56)CC4)cccc3C2=O)C(=O)N1 (centres unmarked) [Example 225, 3-(4-(5-(4-(benzothiophene-7-yl)piperazin-1-yl)pentyl)-1-oxoisoindoline-2-yl)piperidine-2,6-dione]",1000 to 20000
10,"COc1ccc(CNC(=O)[C@H](CCCc2cccc3c2CN(C2CCC(=O)NC2=O)C3=O)NC(C)=O)c(OC)c1 (stereo partly drawn) [Example 180, (2S)-2-acetylamino-N-(2,4-dimethoxybenzyl)-5-(2-(2,6-dipiperidine-3-)-1-oxoisoindoline-4-)pentanamide]",100 to 1000
11,"COc1ccc(C2(C#N)CCN(CCCCCc3cccc4c3CN(C3CCC(=O)NC3=O)C4=O)CC2)c(Cl)c1 (centres unmarked) [Example 267, 4-(2-chloro-4-methoxyphenyl)-1-(5-(2-(2,6-dioxopiperidin-3-yl)-1-oxoisoindoline-4-yl)pentyl)piperidine-4-carbonitrile]",100 to 1000
12,"CC(=O)N[C@@H](CCCc1cccc2c1CN(C1CCC(=O)NC1=O)C2=O)C(=O)N1CCC2(CC1)OCc1ccccc12 (stereo partly drawn) [Example 207, N-((2S)-5-(2-(2,6-dioxopiperidine-3-)-1-oxoisoindoline-4-)-1-oxo-1-(3H-spiro[isobenzofuran-1,4′-piperidine]-1′-)pentyl-2-)acetamide]",100 to 1000
13,"O=C1CCC(N2Cc3c(CCCCCN4CCC5(CC4)C(=O)Nc4cccc(Cl)c45)cccc3C2=O)C(=O)N1 (centres unmarked) [Example 276, 3-(4-(5-(4-chloro-2-oxospiro[dihydroindole-3,4-piperidin]-1-yl)pentyl)-1-oxoisoindoline-2-yl)piperidine-2,6-dione]",100 to 1000
14,"O=C1CCC(N2Cc3c(CCCCCN4CCOc5cc(Br)ccc54)cccc3C2=O)C(=O)N1 (centres unmarked) [Example 110, 3-(4-(5-(7-bromo-2,3-dihydro-4H-benzo[b][1,4]oxazine-4-)pentyl)-1-oxoisoindoline-2-)piperidine-2,6-dione]",< 100
15,"N[C@@H](CCCc1cccc2c1CN(C1CCC(=O)NC1=O)C2=O)C(=O)Nc1ccccc1-c1ccccn1 (stereo partly drawn) [Example 170, (2S)-2-amino-5-(2-(2,6-dioxopiperidine-3-)-1-oxoisoindoline-4-)-N-(2-(pyridine-2-)phenyl)pentanamide]",> 20000
16,"O=C1CCC(N2Cc3c(CCCCCN4CCC5(CC4)C(=O)Nc4ccccc45)cccc3C2=O)C(=O)N1 (centres unmarked) [Example 121, 3-(1-oxo-4-(5-(2-oxospiro[indoline-3,4′-piperidine]-1′-)pentyl)indoline-2-)piperidine-2,6-dione]",< 100
